Laboratory results taken from ChEMBL document CHEMBL3526086, “Identification of the oxidative and conjugative enzymes involved in the biotransformation of brivanib” (Drug Metab Dispos, 2012).

How the values were obtained:
Assay type in all cases: ADME
Cytochrome P450 2C9 [1] = biological target: T1, Cytochrome P450 2C9 (Homo sapiens, UniProt P11712); experiment: Drug metabolism in human liver microsomes assessed as 10 uM sulfaphenazole-mediated inhibition of CYP2C9-mediated (R)-1-(4-(4-fluoro-2-(hydroxymethyl)-1H-indol-5-yloxy)-5-methylpyrrolo[1,2-f][1,2,4]triazin-6-yloxy)propan-2-ol formation at 2 and 20 uM for 30 mins by LC/MS analysis; conditions: 0.5 h
Sulfotransferase 1E1 = Sulfotransferase 1E1 (Homo sapiens, UniProt P49888); experiment: Drug metabolism assessed as human SULT1E1-mediated (R)-1-(4-(4-fluoro-2-methyl-1H-indol-5-yloxy)-5-methylpyrrolo[1,2-f][1,2,4]triazin-6-yloxy)propane-2-sulfonic acid formation at 2 and 20 uM for 30 mins by LC/MS analysis in presence of PAPS; conditions: 0.5 h
Cytochrome P450 2B6 [2] = biological target: T2, Cytochrome P450 2B6 (Homo sapiens, UniProt P20813); experiment: Drug metabolism assessed as human CYP2B6-mediated (R)-1-(4-(4-fluoro-2-(hydroxymethyl)-1H-indol-5-yloxy)-5-methylpyrrolo[1,2-f][1,2,4]triazin-6-yloxy)propan-2-ol formation at 2 and 20 uM for 20 mins by LC/MS analysis in presence of NADPH; conditions: recombinant enzyme
T2 sequence (P20813 whole entry): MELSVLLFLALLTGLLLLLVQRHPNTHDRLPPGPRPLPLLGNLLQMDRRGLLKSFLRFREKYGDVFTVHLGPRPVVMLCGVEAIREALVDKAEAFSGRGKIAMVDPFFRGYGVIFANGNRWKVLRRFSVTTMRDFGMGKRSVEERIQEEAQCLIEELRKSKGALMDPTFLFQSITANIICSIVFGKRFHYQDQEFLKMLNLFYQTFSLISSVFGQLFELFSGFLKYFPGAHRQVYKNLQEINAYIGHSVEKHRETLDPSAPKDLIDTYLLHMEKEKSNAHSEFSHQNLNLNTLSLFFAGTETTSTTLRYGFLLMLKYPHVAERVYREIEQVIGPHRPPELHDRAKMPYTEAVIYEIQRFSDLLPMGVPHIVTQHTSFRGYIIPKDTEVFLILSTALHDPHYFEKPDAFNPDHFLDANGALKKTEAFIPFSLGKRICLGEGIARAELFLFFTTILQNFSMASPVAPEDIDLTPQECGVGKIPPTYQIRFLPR

Sulfotransferase 1B1 = Sulfotransferase 1B1 (Homo sapiens, UniProt O43704); experiment: Drug metabolism assessed as human SULT1B1-mediated (R)-1-(4-(4-fluoro-2-methyl-1H-indol-5-yloxy)-5-methylpyrrolo[1,2-f][1,2,4]triazin-6-yloxy)propane-2-sulfonic acid formation at 2 and 20 uM for 30 mins by LC/MS analysis in presence of PAPS; conditions: 0.5 h
Cytochrome P450 2B6 [3] = biological target: T2, Cytochrome P450 2B6; experiment: Drug metabolism in human liver microsomes assessed as monoclonal antibody-mediated inhibition of CYP2B6-mediated (R)-1-(4-(4-fluoro-2-(hydroxymethyl)-1H-indol-5-yloxy)-5-methylpyrrolo[1,2-f][1,2,4]triazin-6-yloxy)propan-2-ol formation at 2 and 20 uM for 30 mins by LC/MS analysis; conditions: 0.5 h
[4] = Activity of CYP3A4/CYP1A2 in human liver microsomes assessed as enzyme-mediated (R)-1-(4-(4-fluoro-2-(hydroxymethyl)-1H-indol-5-yloxy)-5-methylpyrrolo[1,2-f][1,2,4]triazin-6-yloxy)propan-2-ol formation per mg protein in presence of NADPH
Sulfotransferase 1A1 = Sulfotransferase 1A1 (Homo sapiens, UniProt P50225); experiment: Drug metabolism assessed as human SULT1A1-mediated (R)-1-(4-(4-fluoro-2-methyl-1H-indol-5-yloxy)-5-methylpyrrolo[1,2-f][1,2,4]triazin-6-yloxy)propane-2-sulfonic acid formation at 2 and 20 uM for 30 mins by LC/MS analysis in presence of PAPS; conditions: 0.5 h
Cytochrome P450 1A2 = biological target: T3, Cytochrome P450 1A2 (Homo sapiens, UniProt P05177); experiment: Drug metabolism assessed as human CYP1A2-mediated (R)-1-(4-(4-fluoro-2-(hydroxymethyl)-1H-indol-5-yloxy)-5-methylpyrrolo[1,2-f][1,2,4]triazin-6-yloxy)propan-2-ol formation at 2 and 20 uM for 20 mins by LC/MS analysis in presence of NADPH; conditions: recombinant enzyme
T3 sequence (P05177 whole entry): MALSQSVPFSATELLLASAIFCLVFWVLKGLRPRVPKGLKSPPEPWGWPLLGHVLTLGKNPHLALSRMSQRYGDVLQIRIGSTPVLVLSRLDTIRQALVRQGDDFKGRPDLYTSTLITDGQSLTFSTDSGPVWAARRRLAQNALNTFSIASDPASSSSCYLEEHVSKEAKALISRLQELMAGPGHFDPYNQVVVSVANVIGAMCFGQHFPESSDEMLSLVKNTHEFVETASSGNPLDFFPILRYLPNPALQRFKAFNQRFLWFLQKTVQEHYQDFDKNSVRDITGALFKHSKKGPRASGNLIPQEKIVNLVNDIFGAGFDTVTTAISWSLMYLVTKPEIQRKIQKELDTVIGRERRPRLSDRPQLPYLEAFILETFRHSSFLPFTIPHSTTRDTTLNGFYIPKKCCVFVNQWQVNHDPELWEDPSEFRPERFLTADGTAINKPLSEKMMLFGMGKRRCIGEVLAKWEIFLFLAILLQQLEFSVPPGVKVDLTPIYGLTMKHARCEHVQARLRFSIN

Cytochrome P450 2C9 [5] = biological target: T1, Cytochrome P450 2C9; experiment: Drug metabolism in human liver microsomes assessed as monoclonal antibody-mediated inhibition of CYP2C9-mediated (R)-1-(4-(4-fluoro-2-(hydroxymethyl)-1H-indol-5-yloxy)-5-methylpyrrolo[1,2-f][1,2,4]triazin-6-yloxy)propan-2-ol formation at 2 and 20 uM for 30 mins by LC/MS analysis; conditions: 0.5 h
Cytochrome P450 2B6 [6] = biological target: T2, Cytochrome P450 2B6; experiment: Drug metabolism in human liver microsomes assessed as 50 uM orphenadrine-mediated inhibition of CYP2B6-mediated (R)-1-(4-(4-fluoro-2-(hydroxymethyl)-1H-indol-5-yloxy)-5-methylpyrrolo[1,2-f][1,2,4]triazin-6-yloxy)propan-2-ol formation at 2 and 20 uM for 30 mins by LC/MS analysis; conditions: 0.5 h
Sulfotransferase 2A1 = Sulfotransferase 2A1 (Homo sapiens, UniProt Q06520); experiment: Drug metabolism assessed as human SULT2A1-mediated (R)-1-(4-(4-fluoro-2-methyl-1H-indol-5-yloxy)-5-methylpyrrolo[1,2-f][1,2,4]triazin-6-yloxy)propane-2-sulfonic acid formation at 2 and 20 uM for 30 mins by LC/MS analysis in presence of PAPS; conditions: 0.5 h
Cytochrome P450 2D6 [7] = biological target: T4, Cytochrome P450 2D6 (Homo sapiens, UniProt P10635); experiment: Drug metabolism in human liver microsomes assessed as monoclonal antibody-mediated inhibition of CYP2D6-mediated(R)-1-(4-(4-fluoro-2-(hydroxymethyl)-1H-indol-5-yloxy)-5-methylpyrrolo[1,2-f][1,2,4]triazin-6-yloxy)propan-2-ol formation at 2 and 20 uM for 30 mins by LC/MS analysis; conditions: 0.5 h
Cytochrome P450 3A5 = Cytochrome P450 3A5 (Homo sapiens, UniProt P20815); experiment: Drug metabolism assessed as human CYP3A5-mediated (R)-1-(4-(4-fluoro-2-(hydroxymethyl)-1H-indol-5-yloxy)-5-methylpyrrolo[1,2-f][1,2,4]triazin-6-yloxy)propan-2-ol formation at 2 and 20 uM for 20 mins by LC/MS analysis in presence of NADPH; conditions: recombinant enzyme
Cytochrome P450 2D6 [8] = biological target: T4, Cytochrome P450 2D6; experiment: Drug metabolism assessed as human CYP2D6-mediated (R)-1-(4-(4-fluoro-2-(hydroxymethyl)-1H-indol-5-yloxy)-5-methylpyrrolo[1,2-f][1,2,4]triazin-6-yloxy)propan-2-ol formation at 2 and 20 uM for 20 mins by LC/MS analysis in presence of NADPH; conditions: recombinant enzyme

T1 sequence (P11712 whole entry): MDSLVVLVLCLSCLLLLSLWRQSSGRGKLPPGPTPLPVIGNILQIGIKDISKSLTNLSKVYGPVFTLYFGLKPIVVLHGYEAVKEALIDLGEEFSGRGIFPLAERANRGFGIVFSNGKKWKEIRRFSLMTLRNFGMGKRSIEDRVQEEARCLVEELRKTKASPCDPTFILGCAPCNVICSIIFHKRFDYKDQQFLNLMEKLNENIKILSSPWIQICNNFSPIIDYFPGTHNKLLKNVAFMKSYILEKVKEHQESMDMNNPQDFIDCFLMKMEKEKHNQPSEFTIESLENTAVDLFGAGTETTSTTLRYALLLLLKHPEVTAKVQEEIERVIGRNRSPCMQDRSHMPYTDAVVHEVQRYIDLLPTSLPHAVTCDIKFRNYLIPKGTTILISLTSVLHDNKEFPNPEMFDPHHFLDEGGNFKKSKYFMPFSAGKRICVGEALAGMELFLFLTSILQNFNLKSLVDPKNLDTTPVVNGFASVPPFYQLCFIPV
T4 sequence (P10635 whole entry): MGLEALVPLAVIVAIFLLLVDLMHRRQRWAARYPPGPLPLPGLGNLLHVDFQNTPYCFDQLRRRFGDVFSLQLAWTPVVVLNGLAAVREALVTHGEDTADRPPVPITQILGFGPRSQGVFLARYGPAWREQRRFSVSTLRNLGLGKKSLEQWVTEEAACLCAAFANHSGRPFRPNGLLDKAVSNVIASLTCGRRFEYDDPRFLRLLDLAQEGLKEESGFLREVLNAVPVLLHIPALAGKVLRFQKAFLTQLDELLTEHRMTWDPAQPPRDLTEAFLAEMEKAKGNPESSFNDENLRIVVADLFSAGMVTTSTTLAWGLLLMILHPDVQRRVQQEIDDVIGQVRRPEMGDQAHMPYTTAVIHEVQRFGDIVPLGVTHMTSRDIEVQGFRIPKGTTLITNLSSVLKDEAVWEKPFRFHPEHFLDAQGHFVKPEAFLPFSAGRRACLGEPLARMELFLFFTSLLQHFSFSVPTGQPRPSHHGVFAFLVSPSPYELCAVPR
Sequence of Cytochrome P450 3A5 (P20815 whole entry): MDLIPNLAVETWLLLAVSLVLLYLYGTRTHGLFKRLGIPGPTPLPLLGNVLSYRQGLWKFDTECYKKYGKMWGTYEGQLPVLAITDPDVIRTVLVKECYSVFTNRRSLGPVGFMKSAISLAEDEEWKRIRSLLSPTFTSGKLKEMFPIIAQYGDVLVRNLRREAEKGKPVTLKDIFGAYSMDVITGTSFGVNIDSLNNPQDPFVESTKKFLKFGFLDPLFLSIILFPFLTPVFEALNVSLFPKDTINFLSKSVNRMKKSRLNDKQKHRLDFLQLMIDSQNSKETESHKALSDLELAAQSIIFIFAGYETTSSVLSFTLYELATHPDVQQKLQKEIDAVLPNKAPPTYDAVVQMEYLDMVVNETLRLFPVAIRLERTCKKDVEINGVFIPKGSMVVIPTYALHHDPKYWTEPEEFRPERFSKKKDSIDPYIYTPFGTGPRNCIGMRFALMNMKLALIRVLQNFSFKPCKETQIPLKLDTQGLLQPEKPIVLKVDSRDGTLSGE
Sequence of Sulfotransferase 1E1 (P49888 whole entry): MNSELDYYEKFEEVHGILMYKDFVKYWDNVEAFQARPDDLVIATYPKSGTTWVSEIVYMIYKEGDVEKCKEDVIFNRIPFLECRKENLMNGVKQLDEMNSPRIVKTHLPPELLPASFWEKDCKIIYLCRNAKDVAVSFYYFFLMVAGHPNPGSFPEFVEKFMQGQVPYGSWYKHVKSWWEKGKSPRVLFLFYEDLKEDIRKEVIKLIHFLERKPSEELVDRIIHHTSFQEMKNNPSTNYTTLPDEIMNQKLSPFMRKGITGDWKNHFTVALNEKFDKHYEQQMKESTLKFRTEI
Sequence of Sulfotransferase 1A1 (P50225 whole entry): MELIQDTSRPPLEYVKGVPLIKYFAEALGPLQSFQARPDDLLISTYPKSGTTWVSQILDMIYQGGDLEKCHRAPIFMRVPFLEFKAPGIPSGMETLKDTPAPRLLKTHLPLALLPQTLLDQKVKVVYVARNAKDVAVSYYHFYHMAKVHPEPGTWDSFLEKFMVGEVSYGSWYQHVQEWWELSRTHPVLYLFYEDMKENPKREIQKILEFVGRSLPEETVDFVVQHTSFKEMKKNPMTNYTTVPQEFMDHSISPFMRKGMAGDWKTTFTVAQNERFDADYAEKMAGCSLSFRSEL
Sequence of Sulfotransferase 1B1 (O43704 whole entry): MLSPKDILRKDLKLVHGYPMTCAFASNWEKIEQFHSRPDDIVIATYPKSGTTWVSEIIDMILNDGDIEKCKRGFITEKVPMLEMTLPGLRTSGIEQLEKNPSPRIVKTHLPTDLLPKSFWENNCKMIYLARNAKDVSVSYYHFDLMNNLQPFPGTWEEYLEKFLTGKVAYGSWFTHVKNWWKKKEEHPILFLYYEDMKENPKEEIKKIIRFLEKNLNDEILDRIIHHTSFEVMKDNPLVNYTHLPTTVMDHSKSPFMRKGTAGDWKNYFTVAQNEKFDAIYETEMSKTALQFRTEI
Sequence of Sulfotransferase 2A1 (Q06520 whole entry): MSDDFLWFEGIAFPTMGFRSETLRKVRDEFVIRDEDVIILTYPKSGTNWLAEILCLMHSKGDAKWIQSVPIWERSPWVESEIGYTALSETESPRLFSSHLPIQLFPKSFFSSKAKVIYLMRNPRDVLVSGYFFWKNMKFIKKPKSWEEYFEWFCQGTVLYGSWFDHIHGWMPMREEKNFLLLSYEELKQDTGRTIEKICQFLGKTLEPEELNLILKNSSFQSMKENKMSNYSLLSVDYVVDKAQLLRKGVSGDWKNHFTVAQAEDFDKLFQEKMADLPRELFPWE

Structure (SMILES): Cc1cc2c(F)c(Oc3ncnn4cc(OC[C@@H](C)O)c(C)c34)ccc2[nH]1 [BRIVANIB]
- Drug metabolism (Cytochrome P450 2C9 [1]): metabolite_detected
- Drug metabolism (Sulfotransferase 1E1): metabolite_detected
- Drug metabolism (Cytochrome P450 2B6 [2]): metabolite_detected
- Drug metabolism (Sulfotransferase 1B1): metabolite_detected
- Drug metabolism (Cytochrome P450 2B6 [3]): metabolite_detected
- Vmax [4]: 89.1 pmol/min
- Drug metabolism (Sulfotransferase 1A1): metabolite_detected
- Drug metabolism (Cytochrome P450 1A2): metabolite_detected
- Drug metabolism (Cytochrome P450 2C9 [5]): metabolite_detected
- Drug metabolism (Cytochrome P450 2B6 [6]): metabolite_detected
- Drug metabolism (Sulfotransferase 2A1): metabolite_detected
- Drug metabolism (Cytochrome P450 2D6 [7]): metabolite_detected
- Drug metabolism (Cytochrome P450 3A5): metabolite_detected
- Drug metabolism (Cytochrome P450 2D6 [8]): metabolite_detected
